Data: ChEMBL document CHEMBL1201862, “PubChem BioAssay data set” (2004)
Where a name gives a salt, the structure may show the parent alone. The source made the active and inactive calls.

Key:
[1] = biological target: UDP-galactopyranose mutase (Mycobacterium tuberculosis, UniProt P9WIQ1); test: Inhibitors of Mycobacterium tuberculosis UDP-galactopyranose mutase (UGM) enzyme Measured in Biochemical System Using Plate Reader - 2105-02_Inhibitor_Dose_CherryPick_Activity. [Related pubchem assays (depositor defined):AID504439]
[2] = biological target: T1, Mannose-6-phosphate isomerase (Homo sapiens, UniProt P34949); test: PMI enzyme inhibitors, confirmation, biochemical, fluorescence intensity (AID 1535)
T1 sequence (P34949 whole entry): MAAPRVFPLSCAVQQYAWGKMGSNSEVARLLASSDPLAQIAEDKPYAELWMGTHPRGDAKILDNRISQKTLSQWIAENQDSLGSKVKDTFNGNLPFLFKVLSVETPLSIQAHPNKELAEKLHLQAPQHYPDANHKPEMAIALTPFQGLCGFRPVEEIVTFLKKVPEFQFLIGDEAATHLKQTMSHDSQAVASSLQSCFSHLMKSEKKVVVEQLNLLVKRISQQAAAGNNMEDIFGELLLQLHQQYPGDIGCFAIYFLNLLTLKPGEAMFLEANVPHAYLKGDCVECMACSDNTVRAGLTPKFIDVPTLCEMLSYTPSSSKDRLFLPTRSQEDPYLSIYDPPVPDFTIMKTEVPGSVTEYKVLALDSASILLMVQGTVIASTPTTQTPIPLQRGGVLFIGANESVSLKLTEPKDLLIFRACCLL

[3] = biological target: FAD-linked sulfhydryl oxidase ALR (Homo sapiens, UniProt P55789); test: inhibitors of human ALR sulfhydryl oxidase, dose response, biochemical, H2O2 detection, luminescence, cherry-pick (AID 493248)
[4] = growth induction of Burl-1 ts yeast mutant, dose response, counter-screen for SUMOylation pathway inhibitor project, whole organism, S. cerevisiae, luminescence (AID 463199); assay type: functional
[5] = biological target: Voltage-gated inwardly rectifying potassium channel KCNH2 (Homo sapiens, UniProt Q12809); details: Potency;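 note: confirmatory quantitative high-throughput screen measuring inhibition of hERG channel activity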
[6] = biological target: T2, Corticotropin-releasing factor receptor 2/Corticotropin-releasing factor-binding protein (Homo sapiens, UniProt P24387+Q13324); test: Dose Response confirmation of uHTS hits for small molecule antagonists of the CRF-binding protein and CRF-R2 receptor complex.; assay type: functional; details: read-out: IC50_Mean
T2 sequence (Q13324 whole entry): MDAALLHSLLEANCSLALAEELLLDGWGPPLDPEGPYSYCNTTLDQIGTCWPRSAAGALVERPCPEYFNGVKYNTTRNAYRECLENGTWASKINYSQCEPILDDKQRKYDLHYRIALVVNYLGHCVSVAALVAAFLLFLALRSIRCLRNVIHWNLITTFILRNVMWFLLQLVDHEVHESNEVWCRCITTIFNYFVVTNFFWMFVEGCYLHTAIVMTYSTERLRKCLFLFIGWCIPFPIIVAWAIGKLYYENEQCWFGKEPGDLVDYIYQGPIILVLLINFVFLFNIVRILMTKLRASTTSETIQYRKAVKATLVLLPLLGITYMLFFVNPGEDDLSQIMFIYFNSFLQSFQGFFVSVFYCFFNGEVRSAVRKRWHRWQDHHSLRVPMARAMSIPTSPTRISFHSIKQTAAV
T2 sequence (P24387 whole entry): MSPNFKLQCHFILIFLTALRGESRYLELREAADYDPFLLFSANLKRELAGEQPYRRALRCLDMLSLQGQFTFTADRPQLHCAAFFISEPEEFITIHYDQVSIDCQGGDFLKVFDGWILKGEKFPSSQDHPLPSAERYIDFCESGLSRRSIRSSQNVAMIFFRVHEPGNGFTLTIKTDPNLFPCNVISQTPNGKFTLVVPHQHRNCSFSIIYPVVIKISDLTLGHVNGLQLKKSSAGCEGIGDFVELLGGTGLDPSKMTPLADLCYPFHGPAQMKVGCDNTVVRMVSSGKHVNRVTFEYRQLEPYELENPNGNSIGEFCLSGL

[7] = biological target: T2, Corticotropin-releasing factor receptor 2/Corticotropin-releasing factor-binding protein; test: activators of CRF receptor 2 with binding protein – uHTS hits, confirmation (AID 602473); assay type: functional; details: read-out: EC50_Mean
[8] = biological target: Dual specificity protein kinase CLK1 (Homo sapiens, UniProt P49759); test: CLK1 kinase inhibitors, off-target check, dose response, selectivity assay for Dyrk1A inhibitor project, biochemical, cherry-picked samples (AID 588811)
[9] = biological target: T3, Serine/threonine-protein phosphatase (Candida dubliniensis (strain CD36 / CBS 7987 / NCPF 3949 / NRRLY-17841) (Yeast), UniProt B9W6M3); test: Fluorescence Cell-Based Secondary Assay to Identify Inhibitors of Calcineurin. [Related pubchem assays (depositor defined):AID1979, AID2007]; assay type: functional
T3 sequence (B9W6M3 whole entry): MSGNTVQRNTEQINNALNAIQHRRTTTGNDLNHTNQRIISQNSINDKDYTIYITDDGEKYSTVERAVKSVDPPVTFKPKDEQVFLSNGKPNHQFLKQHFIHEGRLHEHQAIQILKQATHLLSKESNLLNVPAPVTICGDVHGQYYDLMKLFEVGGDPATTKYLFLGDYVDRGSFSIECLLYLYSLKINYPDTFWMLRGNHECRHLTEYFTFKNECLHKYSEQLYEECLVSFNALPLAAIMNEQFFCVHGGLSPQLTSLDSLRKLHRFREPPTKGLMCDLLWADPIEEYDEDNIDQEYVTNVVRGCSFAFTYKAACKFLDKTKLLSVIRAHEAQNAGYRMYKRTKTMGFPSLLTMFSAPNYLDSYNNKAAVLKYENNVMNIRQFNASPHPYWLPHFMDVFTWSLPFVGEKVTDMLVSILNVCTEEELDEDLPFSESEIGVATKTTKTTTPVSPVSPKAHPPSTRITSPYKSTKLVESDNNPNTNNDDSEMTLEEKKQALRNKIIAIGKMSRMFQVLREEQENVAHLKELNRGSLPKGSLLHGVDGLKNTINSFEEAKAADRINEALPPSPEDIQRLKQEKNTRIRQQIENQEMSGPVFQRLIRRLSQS

HEK293 [10] = test: NOD2 signaling inhibitors in MDP-stimulated cells, cell-based, uHTS, luminescence (AID 2001); assay type: functional; details: Homo sapiens
[11] = biological target: Nucleotide-binding oligomerization domain-containing protein 2 (Homo sapiens, UniProt Q9HC29); test: NOD2 signaling inhibitors, cell-based, luminescence, uHTS, HEK293 (AID 1566); assay type: functional
HEK293 [12] = test: cells; assay type: functional, cell-based; details: Homo sapiens
HEK293 [13] = test: cells; assay type: functional, cell-based; details: Homo sapiens; remark: listed apart in the source
[14] = biological target: T4, Microphthalmia-associated transcription factor (Homo sapiens, UniProt O75030); test: TRPM1 promoter luciferase signal decrease, dose response, MITF inhibitor project, cell-based, SK-MEL-5, cherry-picked, set 3 (AID 493073); assay type: functional
T4 sequence (O75030 whole entry): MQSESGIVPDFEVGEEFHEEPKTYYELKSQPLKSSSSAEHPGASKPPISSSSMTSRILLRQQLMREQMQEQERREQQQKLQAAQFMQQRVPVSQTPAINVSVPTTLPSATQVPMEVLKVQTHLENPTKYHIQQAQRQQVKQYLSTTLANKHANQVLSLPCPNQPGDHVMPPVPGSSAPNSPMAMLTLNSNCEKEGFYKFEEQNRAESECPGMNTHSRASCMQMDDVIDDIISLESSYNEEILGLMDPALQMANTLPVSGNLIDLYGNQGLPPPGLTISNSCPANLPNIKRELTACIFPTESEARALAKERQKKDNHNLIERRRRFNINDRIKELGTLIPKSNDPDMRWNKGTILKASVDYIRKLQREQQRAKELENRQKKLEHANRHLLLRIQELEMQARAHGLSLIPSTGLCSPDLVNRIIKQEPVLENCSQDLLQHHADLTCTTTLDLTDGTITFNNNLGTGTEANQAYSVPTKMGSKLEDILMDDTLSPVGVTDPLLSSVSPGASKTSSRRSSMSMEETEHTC

[15] = biological target: T5, Heat shock factor protein 1 (Mus musculus, UniProt P38532); test: inhibition of MG132-induced HSE-luciferase signal, confirmation, cell-based, NIH3T3, luminescence, dose retest (AID 2382); assay type: functional;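 note: NIH3T3 fibroblasts with HSF1-driven luciferase reporter stressed by proteasome inhibitor MG132; luminescence from HSF1-driven luciferase expression after 8 hours of MG132 stress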
T5 sequence (P38532 whole entry): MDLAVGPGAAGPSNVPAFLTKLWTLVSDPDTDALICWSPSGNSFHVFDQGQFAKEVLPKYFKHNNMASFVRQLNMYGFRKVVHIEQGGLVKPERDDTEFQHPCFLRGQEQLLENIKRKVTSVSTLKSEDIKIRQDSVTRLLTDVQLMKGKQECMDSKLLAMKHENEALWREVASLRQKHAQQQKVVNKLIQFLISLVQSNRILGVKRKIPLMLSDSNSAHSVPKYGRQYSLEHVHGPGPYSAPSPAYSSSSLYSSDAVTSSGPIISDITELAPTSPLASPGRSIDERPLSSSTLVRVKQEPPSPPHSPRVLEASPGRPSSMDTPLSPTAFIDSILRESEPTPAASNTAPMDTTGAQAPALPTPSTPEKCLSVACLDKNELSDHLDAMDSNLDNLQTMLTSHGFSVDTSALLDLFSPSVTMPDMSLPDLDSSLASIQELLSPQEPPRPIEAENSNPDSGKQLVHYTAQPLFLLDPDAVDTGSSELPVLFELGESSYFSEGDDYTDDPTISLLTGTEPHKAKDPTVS

HEK293 [16] = test: NOD1 signaling inhibitors, primary screen, cell-based, luminescence, uHTS (AID 1578); assay type: functional; details: Homo sapiens
HEK293 [17] = test: cells; assay type: functional, cell-based; details: Homo sapiens; remark: listed apart in the source
[18] = biological target: Dual specificity protein phosphatase 6 (Rattus norvegicus, UniProt Q64346); assay type: functional;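 note: confirmatory in vitro dose-response testing of MKP-3 inhibition; recombinant His-tagged MKP-3 made in E. coli BL21 with OMFP substrate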
[19] = biological target: Tyrosine-protein phosphatase non-receptor type 7 (Homo sapiens, UniProt P35236); test: redox-dependent HePTP inhibition, mechanism study, biochemical, fluorescence (AID 2068); assay type: functional
CAAX prenyl protease 2 [20] = biological target: CAAX prenyl protease 2 (Saccharomyces cerevisiae S288c, UniProt Q03530); assay type: biochemical
CAAX prenyl protease 2 [21] = biological target: CAAX prenyl protease 2 (Homo sapiens, UniProt Q9Y256); test: human Rce1 protease inhibitors, dose response, biochemical, yeast membranes, quenched-peptide fluorescence, cherry-pick (AID 588849)
Trypsin = Trypsin (Sus scrofa, UniProt P00761); test: porcine trypsin inhibitors, dose response, selectivity assay for Rce1 protease inhibitor project, biochemical, quenched peptide fluorescence, cherry-pick (AID 488789)
Vero = Vero cell cytotoxicity, cytotoxicity control for flavivirus capping enzyme inhibitors (AID 588742); assay type: functional; details: Chlorocebus sabaeus
Genome polyprotein = Genome polyprotein (dengue virus type 2, UniProt P29990); test: Dengue-2 NS5 methyltransferase inhibitors, primary screen, biochemical, confirmation dose response (AID 588689); assay type: functional
[22] = biological target: Glucose-6-phosphate 1-dehydrogenase (Homo sapiens, UniProt P11413); test: human G6PD enzyme inhibitors, dose response, selectivity assay for P. falciparum G6PD inhibitor project, biochemical, fluorescence (AID 504792); assay type: functional
[23] = biological target: Nuclear receptor subfamily 0 group B member 1 (Homo sapiens, UniProt P51843); test: Luminescence-based cell-based high throughput dose response assay for inhibitors of the orphan nuclear receptor subfamily 0, group B, member 1 (DAX1; NR0B1). [Related pubchem assays (depositor defined):AID504766, AID504790]; assay type: functional
HEK293 [24] = test: cells; assay type: functional, cell-based; details: Homo sapiens; remark: listed apart in the source
[25] = growth suppression of beta-catenin-knockout colon cells, dose response, cell-based, HCT116, human colon tumor (AID 1045); assay type: functional;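 note: HCT116 colon tumor cells with beta catenin knocked out; cells exposed to compound for 60 hours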
[26] = NIH-3T3 fibroblast cytotoxicity, dose response, cytotoxicity control, cell-based, fluorescence, Alamar Blue, secondary assay (AID 2327); assay type: functional;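 note: NIH-3T3 mouse fibroblasts cultured with fluconazole at 8 µg/mL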
[27] = growth suppression of PTEN-null colon cells, dose response, cell-based, HCT116 PTEN knockout (AID 1047); assay type: functional;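 note: HCT116 colon tumor cells with PTEN knocked out; cells exposed to compound for 60 hours before readout; potency for loss of cell viability measured by luminescence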
A-375 = test: MITF: Counter assay: A375 proliferation Measured in Cell-Based System Using Plate Reader - 2084-03_Inhibitor_Dose_DryPowder_Activity. [Related pubchem assays (depositor defined):AID488944]; assay type: functional; details: Homo sapiens
[28] = C. albicans growth with fluconazole, confirmation, fluorescence, retest (AID 2467); assay type: functional, cell-based

CAAX prenyl protease 2 (Homo sapiens, UniProt Q9Y256), sequence (Q9Y256 whole entry): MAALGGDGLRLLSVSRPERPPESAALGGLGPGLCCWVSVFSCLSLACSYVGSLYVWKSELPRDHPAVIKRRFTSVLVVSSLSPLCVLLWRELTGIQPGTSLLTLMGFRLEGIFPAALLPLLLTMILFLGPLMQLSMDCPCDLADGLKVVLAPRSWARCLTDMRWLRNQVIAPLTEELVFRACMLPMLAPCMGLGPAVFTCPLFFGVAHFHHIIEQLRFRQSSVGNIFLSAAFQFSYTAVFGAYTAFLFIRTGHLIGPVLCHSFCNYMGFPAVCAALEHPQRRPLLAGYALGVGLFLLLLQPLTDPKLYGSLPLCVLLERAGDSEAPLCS
Voltage-gated inwardly rectifying potassium channel KCNH2, sequence (Q12809 whole entry): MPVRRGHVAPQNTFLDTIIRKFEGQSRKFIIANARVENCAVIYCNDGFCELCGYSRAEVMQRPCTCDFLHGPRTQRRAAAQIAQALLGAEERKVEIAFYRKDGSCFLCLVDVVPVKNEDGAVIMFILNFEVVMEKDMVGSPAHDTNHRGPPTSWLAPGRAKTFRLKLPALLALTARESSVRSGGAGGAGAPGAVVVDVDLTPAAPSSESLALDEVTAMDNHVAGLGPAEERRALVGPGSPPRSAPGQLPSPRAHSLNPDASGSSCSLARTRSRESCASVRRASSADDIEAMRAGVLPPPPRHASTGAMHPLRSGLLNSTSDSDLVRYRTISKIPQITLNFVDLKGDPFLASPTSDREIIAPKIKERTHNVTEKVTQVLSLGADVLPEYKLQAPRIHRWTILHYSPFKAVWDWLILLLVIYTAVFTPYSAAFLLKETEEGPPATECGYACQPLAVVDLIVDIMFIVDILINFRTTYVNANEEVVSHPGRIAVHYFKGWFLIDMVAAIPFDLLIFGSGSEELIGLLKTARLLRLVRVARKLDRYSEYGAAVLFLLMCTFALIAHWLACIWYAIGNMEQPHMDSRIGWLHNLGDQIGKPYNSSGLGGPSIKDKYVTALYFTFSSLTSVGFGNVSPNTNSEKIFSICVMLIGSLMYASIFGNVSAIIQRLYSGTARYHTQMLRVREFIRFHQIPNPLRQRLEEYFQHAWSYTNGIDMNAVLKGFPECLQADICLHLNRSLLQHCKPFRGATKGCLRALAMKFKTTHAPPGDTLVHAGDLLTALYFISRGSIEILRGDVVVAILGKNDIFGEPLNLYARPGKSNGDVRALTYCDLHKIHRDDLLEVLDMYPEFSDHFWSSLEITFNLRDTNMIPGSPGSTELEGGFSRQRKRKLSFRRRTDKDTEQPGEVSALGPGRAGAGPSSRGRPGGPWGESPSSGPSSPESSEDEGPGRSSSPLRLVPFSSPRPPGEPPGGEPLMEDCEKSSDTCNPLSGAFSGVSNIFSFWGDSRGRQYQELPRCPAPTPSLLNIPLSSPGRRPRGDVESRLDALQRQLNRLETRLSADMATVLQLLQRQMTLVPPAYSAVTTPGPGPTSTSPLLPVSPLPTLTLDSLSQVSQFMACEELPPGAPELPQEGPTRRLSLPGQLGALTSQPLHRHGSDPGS
UDP-galactopyranose mutase, sequence (P9WIQ1 whole entry): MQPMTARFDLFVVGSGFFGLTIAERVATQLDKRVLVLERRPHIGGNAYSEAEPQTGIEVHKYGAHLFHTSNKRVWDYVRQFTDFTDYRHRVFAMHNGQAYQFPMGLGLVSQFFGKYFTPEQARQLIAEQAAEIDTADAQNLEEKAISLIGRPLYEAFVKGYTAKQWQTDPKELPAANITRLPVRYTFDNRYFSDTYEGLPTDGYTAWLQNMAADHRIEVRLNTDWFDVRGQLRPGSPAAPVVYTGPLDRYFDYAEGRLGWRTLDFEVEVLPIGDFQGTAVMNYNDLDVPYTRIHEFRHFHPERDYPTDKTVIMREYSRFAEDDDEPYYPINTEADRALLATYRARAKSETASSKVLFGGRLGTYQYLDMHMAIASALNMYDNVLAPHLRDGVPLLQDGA
Glucose-6-phosphate 1-dehydrogenase, sequence (P11413 whole entry): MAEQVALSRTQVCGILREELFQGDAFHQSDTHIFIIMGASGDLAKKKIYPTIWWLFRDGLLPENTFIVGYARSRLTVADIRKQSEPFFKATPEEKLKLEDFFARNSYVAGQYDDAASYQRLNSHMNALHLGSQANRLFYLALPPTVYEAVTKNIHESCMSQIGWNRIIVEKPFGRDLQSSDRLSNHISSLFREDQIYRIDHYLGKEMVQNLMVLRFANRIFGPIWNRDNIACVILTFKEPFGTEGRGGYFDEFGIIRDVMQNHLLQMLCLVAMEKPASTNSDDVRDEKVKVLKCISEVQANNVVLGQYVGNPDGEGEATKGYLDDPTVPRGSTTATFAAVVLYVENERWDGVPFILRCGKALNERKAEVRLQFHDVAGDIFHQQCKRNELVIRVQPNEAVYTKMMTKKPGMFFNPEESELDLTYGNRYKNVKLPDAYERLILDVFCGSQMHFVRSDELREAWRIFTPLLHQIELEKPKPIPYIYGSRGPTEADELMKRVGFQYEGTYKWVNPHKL
Nucleotide-binding oligomerization domain-containing protein 2, sequence (Q9HC29 whole entry, the tested form may be a part): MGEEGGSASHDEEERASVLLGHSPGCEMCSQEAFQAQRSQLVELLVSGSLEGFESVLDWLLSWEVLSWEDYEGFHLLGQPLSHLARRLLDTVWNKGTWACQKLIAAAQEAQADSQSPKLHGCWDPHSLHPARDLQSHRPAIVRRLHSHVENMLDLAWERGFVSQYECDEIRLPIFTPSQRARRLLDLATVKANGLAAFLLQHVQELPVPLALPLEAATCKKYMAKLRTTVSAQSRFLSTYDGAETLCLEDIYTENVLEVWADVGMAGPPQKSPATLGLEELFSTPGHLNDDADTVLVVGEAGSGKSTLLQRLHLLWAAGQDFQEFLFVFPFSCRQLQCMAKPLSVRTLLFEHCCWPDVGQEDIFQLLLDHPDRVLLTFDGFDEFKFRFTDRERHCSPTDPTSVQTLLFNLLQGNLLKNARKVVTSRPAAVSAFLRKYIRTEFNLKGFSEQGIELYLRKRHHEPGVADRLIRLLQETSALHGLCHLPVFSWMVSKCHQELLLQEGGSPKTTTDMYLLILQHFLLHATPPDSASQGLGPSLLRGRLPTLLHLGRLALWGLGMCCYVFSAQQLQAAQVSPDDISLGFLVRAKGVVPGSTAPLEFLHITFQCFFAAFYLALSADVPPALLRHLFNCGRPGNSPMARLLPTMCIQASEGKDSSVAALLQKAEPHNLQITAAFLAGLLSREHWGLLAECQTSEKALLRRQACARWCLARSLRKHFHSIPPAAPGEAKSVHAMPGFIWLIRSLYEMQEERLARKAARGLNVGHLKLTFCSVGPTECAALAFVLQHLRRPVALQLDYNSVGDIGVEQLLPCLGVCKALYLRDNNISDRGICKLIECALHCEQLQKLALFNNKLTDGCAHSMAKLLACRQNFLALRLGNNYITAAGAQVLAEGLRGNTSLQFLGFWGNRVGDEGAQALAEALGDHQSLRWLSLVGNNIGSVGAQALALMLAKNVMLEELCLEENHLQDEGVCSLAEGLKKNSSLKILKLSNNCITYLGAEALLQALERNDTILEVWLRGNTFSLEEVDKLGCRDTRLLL
Genome polyprotein, sequence (P29990 2492-3391 limits assumed): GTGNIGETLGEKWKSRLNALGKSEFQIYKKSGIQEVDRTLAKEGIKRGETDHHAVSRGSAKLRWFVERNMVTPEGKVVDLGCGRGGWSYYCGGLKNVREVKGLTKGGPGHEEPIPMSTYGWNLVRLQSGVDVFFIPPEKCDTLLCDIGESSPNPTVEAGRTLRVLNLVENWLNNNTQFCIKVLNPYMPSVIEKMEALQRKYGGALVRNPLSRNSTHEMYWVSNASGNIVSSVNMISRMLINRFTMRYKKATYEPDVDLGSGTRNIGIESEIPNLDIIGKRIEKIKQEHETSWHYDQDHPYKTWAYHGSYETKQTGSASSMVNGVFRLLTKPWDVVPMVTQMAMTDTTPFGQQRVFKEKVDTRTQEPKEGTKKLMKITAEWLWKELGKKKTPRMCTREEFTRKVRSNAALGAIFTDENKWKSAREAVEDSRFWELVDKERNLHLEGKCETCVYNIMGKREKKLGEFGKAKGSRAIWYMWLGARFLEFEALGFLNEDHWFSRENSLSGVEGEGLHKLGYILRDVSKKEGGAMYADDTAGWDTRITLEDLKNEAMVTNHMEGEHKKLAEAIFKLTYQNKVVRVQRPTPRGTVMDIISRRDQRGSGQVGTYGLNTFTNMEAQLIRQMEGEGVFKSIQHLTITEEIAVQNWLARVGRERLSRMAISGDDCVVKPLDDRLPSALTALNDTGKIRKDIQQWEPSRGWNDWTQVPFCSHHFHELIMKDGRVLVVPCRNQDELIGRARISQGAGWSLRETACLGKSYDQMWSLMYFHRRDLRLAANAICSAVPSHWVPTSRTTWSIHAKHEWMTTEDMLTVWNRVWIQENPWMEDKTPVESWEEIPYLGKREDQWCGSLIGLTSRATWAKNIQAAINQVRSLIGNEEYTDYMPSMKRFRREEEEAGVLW
CAAX prenyl protease 2 (Saccharomyces cerevisiae S288c, UniProt Q03530), sequence (Q03530 whole entry): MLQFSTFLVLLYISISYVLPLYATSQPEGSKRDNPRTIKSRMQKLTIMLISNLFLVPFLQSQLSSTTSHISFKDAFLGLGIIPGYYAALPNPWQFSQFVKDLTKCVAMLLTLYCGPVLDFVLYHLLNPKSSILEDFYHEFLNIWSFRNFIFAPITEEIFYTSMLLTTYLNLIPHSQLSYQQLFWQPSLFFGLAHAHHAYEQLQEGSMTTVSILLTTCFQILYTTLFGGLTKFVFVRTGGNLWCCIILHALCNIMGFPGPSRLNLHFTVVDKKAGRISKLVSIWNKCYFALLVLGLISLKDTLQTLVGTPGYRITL
Dual specificity protein phosphatase 6, sequence (Q64346 whole entry): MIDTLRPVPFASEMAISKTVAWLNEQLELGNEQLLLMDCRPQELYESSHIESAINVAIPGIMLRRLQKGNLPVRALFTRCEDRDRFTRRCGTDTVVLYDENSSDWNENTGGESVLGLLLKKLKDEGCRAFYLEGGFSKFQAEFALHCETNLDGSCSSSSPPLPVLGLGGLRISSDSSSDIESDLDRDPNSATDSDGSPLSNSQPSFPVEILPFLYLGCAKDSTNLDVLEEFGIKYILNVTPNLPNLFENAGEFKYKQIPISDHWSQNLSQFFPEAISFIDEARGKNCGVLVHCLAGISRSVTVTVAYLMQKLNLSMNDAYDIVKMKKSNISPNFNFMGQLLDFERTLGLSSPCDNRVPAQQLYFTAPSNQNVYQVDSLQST

## O=C(NCC1CCCO1)c1cccc2c1C(=O)c1ccc(N3CCC(Cc4ccccc4)CC3)cc1S2(=O)=O (configuration not stated)
[1]
  AC50: 52.6 µM (active)

## O=c1c2cc(F)ccc2sn1-c1ccccc1F
[2]
  IC50: 5.3 µM (active)

## O=C(O)CCc1ccc(-c2cccs2)n1NC(=O)c1cccs1
[3]
  AC50: 1.55 µM (active)
[4]
  AC50: 183 µM (active)

## c1ccc(C2CN3CCSC3=N2)cc1 (configuration not stated) [TETRAMISOLE HYDROCHLORIDE]
[5]
  AC50: 35.5 µM (inconclusive)
[6]
  IC50: > 47.1 µM (inactive)
[7]
  EC50: > 53 µM (inactive)

## CCN(Cc1cccs1)c1ncnc2ccc(-c3ccc4c(c3)OCO4)cc12
[8]
  AC50: < 0.00195 µM (active)

## O=C1/C(=C\c2ccccc2)CCc2c1[nH]c1ccccc21
[9]
  EC50: > 285 µM (inactive)

## O=C(CCl)Nc1ccc(Sc2ccc(NC(=O)CCl)cc2)cc1
HEK293 [10]
  IC50: 2.71 µM (active)
[11]
  EC50: 18.8 µM (active)
HEK293 [12]
  IC50: 10.2 µM (active)
HEK293 [13]
  IC50: 1.62 µM (active)
[14]
  AC50: 5.98 µM (active)
[15]
  EC50: 3.68 µM (active)
HEK293 [16]
  EC50: 10.1 µM (active)
HEK293 [17]
  IC50: > 20 µM (inactive)

## CCN(CC)C(=S)c1ccc(O)c(OC)c1
[18]
  IC50: > 100 µM (inactive)
[19]
  IC50: 4.42 µM (active)

## COC(=O)C1=CNC=C(C(=O)OC)C1c1cccc2ccccc12
CAAX prenyl protease 2 [20]
  AC50: 26.9 µM (active)
CAAX prenyl protease 2 [21]
  AC50: 7.98 µM (active)
Trypsin
  AC50: 80.3 µM (active)

## COc1cc(CN2CCCC(C(=O)c3ccc4c5c(cccc35)CC4)C2)cc(OC)c1O (configuration not stated)
Vero
  CC50: > 40 µM (active)
Genome polyprotein
  IC50: 97.7 µM (active)
[22]
  IC50: 24.3 µM (inactive)

## FC(F)(F)c1nnc2ccc(NCc3cccnc3)nn12
[23]
  IC50: > 67.5 µM (inactive)
HEK293 [24]
  IC50: 50.4 µM (inactive)

## CCOc1cc(/C=N/N=C(N)N)ccc1OCc1ccc(Cl)cc1
[25]
  EC50: 3.01 µM (active)
[26]
  EC50: 81.2 µM (active)
[27]
  EC50: 3.92 µM (active)
A-375
  AC50: 18 µM (active)
[28]
  EC50: > 38 µM (not active)
